Each block holds one molecule with its values, some of them ahead of it.
Tested on: 354836-022-R-J1-PDC multicell spheroid viability
Assay: Anticancer human tumor 354836-022-R-J1-PDC patient-derived head and neck squamous cell carcinoma cell line growth inhibition [PI3K]
Details: for viability, T/C: stronger effect = lower value
Excerpt: Combinatorial screen of targeted agents with the PI3K inhibitors inavolisib, alpelisib, duvelisib, and copanlisib in multi-cell type tumor spheroids
A high-throughput screen of multi-cell type tumor spheroids was designed to identify active combinations of targeted small molecules and PI3K pathway inhibitors. Complex spheroids include a stromal component modeled by human endothelial cells (HUVEC) and fibroblasts modeled by human mesenchymal stem cells (MSCs). The concentration ranges selected for each drug and investigational agent were based upon clinically achievable concentrations if the clinical Cmax of the agent was known.
Compounds. The drugs and investigational agents: inavolisib (NSC800729), alpelisib (NSC765974), duvelisib (NSC772469), copanlisib (NSC816437), ipatasertib (NSC767898), afuresertib (NSC778305), talazoparib (NSC767125), sapanisertib (NSC764658), selumetinib (NSC741078), tovorafenib (DAY101, NSC766906), vemurafenib (NSC761431), ravoxertinib (NSC781343), sotorasib (NSC818433), MRTX1133 (NSC 836407), abemaciclib (NSC 768073), palbociclib (NSC758247), venetoclax (NSC 766270), SY5609 (NSC837396), enzalutamide (NSC755605), and darolutamide (NSC825331), were obtained from the National Cancer Institute (NCI) Developmental Therapeutics Program Chemical Repository. The FDA-approved anticancer drug set is available from the NCI Developmental Therapeutics Program. […] The stock solutions were prepared in dimethyl sulfoxide (DMSO, Sigma-Aldrich, St. Louis, MO, cat. D2650) at 800-fold the tested concentration and stored at -70 degrees C prior to their use. All drugs and investigational agents were tested over a range starting from a high concentration at or near the clinical Cmax and decreasing in half-log increments. If the clinical Cmax for an agent had not been determined, the highest concentration tested was 10 microM.
Cell Culture. All cells were maintained in an incubator at 37 degrees C and 5% CO2 with 95% humidity. The PDC lines were cultured according to standard operating procedures established by the NCI PDMR (https://pdmr.cancer.gov/sops/default.htm). All PDCs were thawed and cultured in Matrigel-coated flasks prepared with a working solution of 1X Ham's F-12 nutrient mix, without supplementation (Invitrogen, Waltham, MA, cat. 11765054), 100 U/mL penicillin-streptomycin (Invitrogen, cat. 15140122), and 2.5% Matrigel (Corning Inc., Corning, NY, cat. 354248) for the first three passages. The 354836-022-R-J1-PDC, 475296-252-R-J1-PDC, and 997726-040-R-J2-PDC lines were cultured in 6A media, which includes advanced DMEM/F-12 (Thermo Fisher Scientific, cat. 12634028), 10 mM HEPES (Thermo Fisher Scientific, cat. 15630080), 1X GlutaMAX supplement (Thermo Fisher Scientific, cat. 35050061), 0.1 mg/mL primocin (InvivoGen, San Diego, CA, cat. ant-pm-2), 10% defined fetal bovine serum, heat inactivated (HyClone Laboratories Inc., Logan, UT, cat. SH30070.03HI), 50% L-WRN conditioned media (ATCC, cat. CRL-3276), 1.25 mM N-Acetyl-L-cysteine (Sigma-Aldrich, cat. A9165), 10 mM nicotinamide (Sigma-Aldrich, cat. N0636), 1X B-27 supplement (Thermo Fisher Scientific, cat. 17504044), 1X N-2 supplement (Thermo Fisher Scientific, cat. 17502048), and 10 microM Y-27632 dihydrochloride (Tocris Bioscience, Bristol, United Kingdom, cat. 1254). The 624824-186-R-J2-PDC line was cultured in 6C/Colon 1B media, which includes all 6A media components plus 50 ng/mL human EGF recombinant protein (Thermo Fisher Scientific, cat. PHG0311). […]

[1] = curve of first compound, second compound 0.0316 µM
[2] = curve of first compound, second compound 0.1 µM
[3] = curve of first compound, second compound 0.316 µM
[4] = curve of first compound, second compound 1 µM
[5] = second compound 0.0316 µM, first compound 0.0316 µM
[6] = second compound 0.0316 µM, first compound 0.1 µM
[7] = second compound 0.0316 µM, first compound 0.316 µM
[8] = second compound 0.0316 µM, first compound 1 µM
[9] = second compound 0.0316 µM, first compound 3.16 µM
[10] = second compound 0.0316 µM, first compound 10 µM
[11] = second compound 0.1 µM, first compound 0.0316 µM
[12] = second compound 0.1 µM, first compound 0.1 µM
[13] = second compound 0.1 µM, first compound 0.316 µM
[14] = second compound 0.1 µM, first compound 1 µM
[15] = second compound 0.1 µM, first compound 3.16 µM
[16] = second compound 0.1 µM, first compound 10 µM
[17] = second compound 0.316 µM, first compound 0.0316 µM
[18] = second compound 0.316 µM, first compound 0.1 µM
[19] = second compound 0.316 µM, first compound 0.316 µM
[20] = second compound 0.316 µM, first compound 1 µM
[21] = second compound 0.316 µM, first compound 3.16 µM
[22] = second compound 0.316 µM, first compound 10 µM
[23] = second compound 1 µM, first compound 0.0316 µM
[24] = second compound 1 µM, first compound 0.1 µM
[25] = second compound 1 µM, first compound 0.316 µM
[26] = second compound 1 µM, first compound 1 µM
[27] = second compound 1 µM, first compound 3.16 µM
[28] = second compound 1 µM, first compound 10 µM
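Also: spheroids exposed to agents for seven days before the viability read.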

IC50 (curve of first compound, second compound 0.00316 µM): > 10 µM
IC50 (curve of first compound, second compound 0.01 µM): > 10 µM
IC50 [1]: > 10 µM
IC50 [2]: < 0.0316 µM
IC50 [3]: < 0.0316 µM
IC50 [4]: < 0.0316 µM
SMILES: CNC(=O)c1ccc(N2C(=S)N(c3ccc(C#N)c(C(F)(F)F)c3)C(=O)C2(C)C)cc1F + COc1c(OCCCN2CCOCC2)ccc2c3n(c(=NC(=O)c4cnc(N)nc4)nc12)CCN3
viability, T/C (second compound 0.00316 µM, first compound 0.0316 µM): 93.6%
viability, T/C (second compound 0.00316 µM, first compound 0.1 µM): 102%
viability, T/C (second compound 0.00316 µM, first compound 0.316 µM): 101%
viability, T/C (second compound 0.00316 µM, first compound 1 µM): 107%
viability, T/C (second compound 0.00316 µM, first compound 3.16 µM): 124%
viability, T/C (second compound 0.00316 µM, first compound 10 µM): 93.2%
viability, T/C (second compound 0.01 µM, first compound 0.0316 µM): 97.3%
viability, T/C (second compound 0.01 µM, first compound 0.1 µM): 92.8%
viability, T/C (second compound 0.01 µM, first compound 0.316 µM): 92.7%
viability, T/C (second compound 0.01 µM, first compound 1 µM): 97.7%
viability, T/C (second compound 0.01 µM, first compound 3.16 µM): 102%
viability, T/C (second compound 0.01 µM, first compound 10 µM): 108%
viability, T/C [5]: 78.1%
viability, T/C [6]: 80%
viability, T/C [7]: 81.8%
viability, T/C [8]: 83.7%
viability, T/C [9]: 80.4%
viability, T/C [10]: 77%
viability, T/C [11]: 47.8%
viability, T/C [12]: 50.8%
viability, T/C [13]: 57.1%
viability, T/C [14]: 49.2%
viability, T/C [15]: 58.4%
viability, T/C [16]: 49.9%
viability, T/C [17]: 16.4%
viability, T/C [18]: 18.1%
viability, T/C [19]: 13.4%
viability, T/C [20]: 10.8%
viability, T/C [21]: 14.5%
viability, T/C [22]: 12.6%
viability, T/C [23]: 1.3%
viability, T/C [24]: 1.27%
viability, T/C [25]: 1.65%
viability, T/C [26]: 1.63%
viability, T/C [27]: 1.96%
viability, T/C [28]: 0.99%

IC50 [1]: 4.53 µM
IC50 [2]: 4.08 µM
IC50 [3]: 4.27 µM
IC50 [4]: 4.31 µM
IC50 (curve of first compound, second compound 3.16 µM): 2.74 µM
IC50 (curve of first compound, second compound 10 µM): < 0.0316 µM
SMILES: CC1(C)CCC(CN2CCN(c3ccc(C(=O)NS(=O)(=O)c4ccc(NCC5CCOCC5)c([N+](=O)[O-])c4)c(Oc4cnc5[nH]ccc5c4)c3)CC2)=C(c2ccc(Cl)cc2)C1 + Cc1nc(NC(=O)N2CCCC2C(N)=O)sc1-c1ccnc(C(C)(C)C(F)(F)F)c1
viability, T/C [5]: 99.3%
viability, T/C [6]: 82.3%
viability, T/C [7]: 94.3%
viability, T/C [8]: 91.7%
viability, T/C [9]: 70.1%
viability, T/C [10]: 5.83%
viability, T/C [11]: 109%
viability, T/C [12]: 93%
viability, T/C [13]: 97.1%
viability, T/C [14]: 100%
viability, T/C [15]: 63%
viability, T/C [16]: 4.78%
viability, T/C [17]: 99.7%
viability, T/C [18]: 86.4%
viability, T/C [19]: 79.5%
viability, T/C [20]: 91.9%
viability, T/C [21]: 65.4%
viability, T/C [22]: 6.04%
viability, T/C [23]: 83.7%
viability, T/C [24]: 79.6%
viability, T/C [25]: 88.4%
viability, T/C [26]: 79.7%
viability, T/C [27]: 67%
viability, T/C [28]: 4.76%
viability, T/C (second compound 3.16 µM, first compound 0.0316 µM): 68.3%
viability, T/C (second compound 3.16 µM, first compound 0.1 µM): 66.5%
viability, T/C (second compound 3.16 µM, first compound 0.316 µM): 72.1%
viability, T/C (second compound 3.16 µM, first compound 1 µM): 60.8%
viability, T/C (second compound 3.16 µM, first compound 3.16 µM): 48.8%
viability, T/C (second compound 3.16 µM, first compound 10 µM): 4.11%
viability, T/C (second compound 10 µM, first compound 0.0316 µM): 38.1%
viability, T/C (second compound 10 µM, first compound 0.1 µM): 39.8%
viability, T/C (second compound 10 µM, first compound 0.316 µM): 43.8%
viability, T/C (second compound 10 µM, first compound 1 µM): 37.4%
viability, T/C (second compound 10 µM, first compound 3.16 µM): 34.6%
viability, T/C (second compound 10 µM, first compound 10 µM): 7.88%

IC50 (compound alone, run of 06/13/2023): > 10 µM
SMILES: CC(Nc1ncnc2nc[nH]c12)c1cc2cccc(Cl)c2c(=O)n1-c1ccccc1 (stereo unspecified)
viability, T/C (compound 0.0316 µM): 101% [middle of 8 runs]
viability, T/C (compound 0.1 µM): 104% [middle of 8 runs]
viability, T/C (compound 0.316 µM): 99.3% [middle of 8 runs]
viability, T/C (compound 1 µM): 97.6% [middle of 8 runs]
viability, T/C (compound 3.16 µM): 92.8% [middle of 8 runs]
viability, T/C (compound 10 µM): 94.6% [middle of 8 runs]
